From patent publication US20090247520A1, “INHIBITORS OF ANTIGEN RECEPTOR-INDUCED NF-kappa B ACTIVATION” (The Burnham Institute for Medical Research, priority 2008, published 2009)

Columns and labels:
Type in all cases: cell-based
[1] = system: NOD2 (NLRC2) induced NF-κB-luciferase reporter gene activity; test: NF-κB reporter in HEK293-NF-κB-luc cells over-expressing NOD2; conditions: CID-2858522 4 μM, IKK inhibitor 10 μM
Description: (§1) FIGS. 3 (A-F) HEK293-NF-κB-luc cells were pretreated with CID-2858522 (4 μM), IKK inhibitor, BMS-335541 (10 μM), or PKC inhibitor, Bisindolylmaleimide I (1 μM) for 2 hrs and then transfected with plasmids encoding CD4/TLR4 (A), CD40 (B), NOD1 (C), NOD2 (D), cIAP2-MALT1 (E), or XIAP and TAB (F), or pcDNA as control (compounds were not removed). After 48 hrs, luciferase activity was measured expressing data as fold increase relative to unstimulated cells (mean±SD; n=3). (G-H) HEK293-NF-κB-luc cells were pretreated with CID-2858522 (4 μM), or IKK inhibitor, BMS-335541 (10 μM) for 2 hrs and then cultured with 2 μM doxorubicin (G) or 16 μM retinoic acid (H). After 48 hrs, luciferase activity was measured as above.
(§2) Counter Screening and Secondary Assays. To counter-screen for inhibitors of the TNF pathway, HEK293-NFκB-Luc cells were seeded at 10^5 cells per well in 90 μL medium in white 96-well plates (Greiner Bio-One) and cultured overnight, before adding compounds (5 μL in medium) to cells. […] Luciferase activity was measured using Britelite kit (Perkin Elmer). […] Cells were cultured in medium containing CID-2858522 or other compounds and luciferase activity was measured 48 h later. […] Reactions were then initiated by addition of 50 μL 160 nM ATP (Sigma) in PBS and luciferase activity was measured 2 h later using a luminometer (LJL Biosystems, Sunnyvale, Calif.).

[2] = system: doxorubicin-induced NF-κB activity; test: NF-κB reporter in HEK293-NF-κB-luc cells stimulated with doxorubicin; conditions: 2 μM doxorubicin; CID-2858522 4 μM, IKK inhibitor 10 μM
Description: as §1, §2

[3] = system: CARMA/MALT1/Bcl-10 complex; test: Co-immunoprecipitation of CARMA1/CARMA3 with Bcl-10, MALT, TRAF6, IKKγ, Caspase-8 in transfected HEK293 cells; conditions: for inhibition of PMA-induced association of CARMA1 or CARMA3 with Bcl-10, MALT, TRAF6, IKKγ, Caspase-8: CID-2858522 4 μM, Bisindolylmaleimide I 1 μM
Description: FIG. 7. CID-285852 inhibits IKKβ phosphorylation induced by PKC activators. (A) HEK293 cells were cultured in 0.5% FBS medium for 24 h and then treated with CID-2858522 (4 μM) or PKC inhibitor, Bisindolylmaleimide I (1 μM) for 2 hrs followed by PMA/Ionomycin (10 ng/mL; 5 ng/mL) for 2 h. Cell lysates were subjected to immunoprecipitation using anti-CARMA1 antibody and analyzed by immunoblotting with anti-phospho-CARMA1 antibody or anti-CARMA1 antibody. (B-E) HEK293 cells were transfected with plasmids encoding myc-CARMA1 in combination with plasmids encoding various other proteins including Caspase-8 (cys287ala) (B), HA-IKK-γ (C), HA-TAK1 (D), and TRAF6 (E). After 36 h. cells were cultured in 0.5% FBS medium for 12 h and then treated with CID-2858522 (4 μM) or Bisindolylmaleimide I (1 μM) for 2 hrs, followed by PMA/Ionomycin treatment (10 ng/mL; 5 ng/mL) for 2 hrs. Cell lysates were immunoprecipated using anti-myc antibody and analyzed by immunoblotting using anti-Caspase8 (B), anti-HA (C,D), or anti-TRAF6 (E) antibodies. (F) HEK293 cells were treated with CID-2858522 (4 μM) or PKC inhibitor (1 μM) followed by PMA/Ionomycin (10 ng/mL; 5 ng/mL) treatment for 2 hrs. Cell lysates were normalized for protein content and analyzed by immunoblotting using anti-FLIP and anti-alpha-tubulin antibodies. […] Cell lysates were immunoprecipitated using anti-IKK-β and analyzed by immunoblotting using anti-phospho-IKK-β antibody or anti-IKK-β antibody (as loading control). Approximate molecular weights of all proteins are indicated in kiloDaltons.
Mapping the site of action of CID-2858522 in the antigen receptor-activated NF-κB pathway. […] To characterize the effects of CID-2858522 on these possible targets of the antigen receptor pathway for NF-κB activation, we first evaluated PMA-induced phosphorylation of Carmal, by phospho-specific antibody immunoblotting, finding no effect of CID-2858522 on this molecular event that initiates formation of the CBM complex (FIG. 7A). […]

Row | Compound | inhibition of NOD2-induced NF-κB reporter [1] | suppression of doxorubicin-induced NF-κB activity [2] | inhibition of PMA-induced association of CARMA1 or CARMA3 with Bcl-10, MALT, TRAF6, IKKγ, Caspase-8 [3] | disruption of CARMA/MALT1/Bcl-10 (CMB) complex formation ([3]; PMA/Ionomycin, cells or lysate)
1 | Cc1cc2nc(NCCCO)n(CC(=O)c3cc(C(C)(C)C)c(O)c(C(C)(C)C)c3)c2cc1C [Compound 1, 2-(2-(3-Hydroxypropylamino)-5,6-dimethyl-1H-benzo[d]imidazol-1-yl)-1-(3,5-di-tert-butyl-4-hydroxyphenyl)ethanone] | did not inhibit | did not inhibit | not by CID-2858522 | did not disrupt
2 | Cc1ccc2nc(NCCN)c3ncc(C)n3c2c1 [BMS-345541, reference compound] | inhibited | suppressed | – | –
3 | CN(C)CCCn1cc(C2=C(c3c[nH]c4ccccc34)C(=O)NC2=O)c2ccccc21 [Bisindolylmaleimide I, reference compound] | – | – | inhibited | –
